Laboratory results from PMC5129982, “Screen-identified selective inhibitor of lysine demethylase 5A blocks cancer cell growth and drug resistance” (Oncotarget, 2016).

Columns and labels:
full-length FLAG-KDM5A = target: T1, full-length FLAG-KDM5A (Homo sapiens, UniProt P29375); assay: AlphaScreen KDM5A demethylation assay; type: biochemical; conditions: for inhibition at 2 µM: 2 μM compound
T1 construct: Sf21 insect cells were infected with baculovirus to express full-length FLAG-KDM5A; made in house; host or cells: Sf21 insect cells (baculovirus)
T1 sequence (P29375 whole entry): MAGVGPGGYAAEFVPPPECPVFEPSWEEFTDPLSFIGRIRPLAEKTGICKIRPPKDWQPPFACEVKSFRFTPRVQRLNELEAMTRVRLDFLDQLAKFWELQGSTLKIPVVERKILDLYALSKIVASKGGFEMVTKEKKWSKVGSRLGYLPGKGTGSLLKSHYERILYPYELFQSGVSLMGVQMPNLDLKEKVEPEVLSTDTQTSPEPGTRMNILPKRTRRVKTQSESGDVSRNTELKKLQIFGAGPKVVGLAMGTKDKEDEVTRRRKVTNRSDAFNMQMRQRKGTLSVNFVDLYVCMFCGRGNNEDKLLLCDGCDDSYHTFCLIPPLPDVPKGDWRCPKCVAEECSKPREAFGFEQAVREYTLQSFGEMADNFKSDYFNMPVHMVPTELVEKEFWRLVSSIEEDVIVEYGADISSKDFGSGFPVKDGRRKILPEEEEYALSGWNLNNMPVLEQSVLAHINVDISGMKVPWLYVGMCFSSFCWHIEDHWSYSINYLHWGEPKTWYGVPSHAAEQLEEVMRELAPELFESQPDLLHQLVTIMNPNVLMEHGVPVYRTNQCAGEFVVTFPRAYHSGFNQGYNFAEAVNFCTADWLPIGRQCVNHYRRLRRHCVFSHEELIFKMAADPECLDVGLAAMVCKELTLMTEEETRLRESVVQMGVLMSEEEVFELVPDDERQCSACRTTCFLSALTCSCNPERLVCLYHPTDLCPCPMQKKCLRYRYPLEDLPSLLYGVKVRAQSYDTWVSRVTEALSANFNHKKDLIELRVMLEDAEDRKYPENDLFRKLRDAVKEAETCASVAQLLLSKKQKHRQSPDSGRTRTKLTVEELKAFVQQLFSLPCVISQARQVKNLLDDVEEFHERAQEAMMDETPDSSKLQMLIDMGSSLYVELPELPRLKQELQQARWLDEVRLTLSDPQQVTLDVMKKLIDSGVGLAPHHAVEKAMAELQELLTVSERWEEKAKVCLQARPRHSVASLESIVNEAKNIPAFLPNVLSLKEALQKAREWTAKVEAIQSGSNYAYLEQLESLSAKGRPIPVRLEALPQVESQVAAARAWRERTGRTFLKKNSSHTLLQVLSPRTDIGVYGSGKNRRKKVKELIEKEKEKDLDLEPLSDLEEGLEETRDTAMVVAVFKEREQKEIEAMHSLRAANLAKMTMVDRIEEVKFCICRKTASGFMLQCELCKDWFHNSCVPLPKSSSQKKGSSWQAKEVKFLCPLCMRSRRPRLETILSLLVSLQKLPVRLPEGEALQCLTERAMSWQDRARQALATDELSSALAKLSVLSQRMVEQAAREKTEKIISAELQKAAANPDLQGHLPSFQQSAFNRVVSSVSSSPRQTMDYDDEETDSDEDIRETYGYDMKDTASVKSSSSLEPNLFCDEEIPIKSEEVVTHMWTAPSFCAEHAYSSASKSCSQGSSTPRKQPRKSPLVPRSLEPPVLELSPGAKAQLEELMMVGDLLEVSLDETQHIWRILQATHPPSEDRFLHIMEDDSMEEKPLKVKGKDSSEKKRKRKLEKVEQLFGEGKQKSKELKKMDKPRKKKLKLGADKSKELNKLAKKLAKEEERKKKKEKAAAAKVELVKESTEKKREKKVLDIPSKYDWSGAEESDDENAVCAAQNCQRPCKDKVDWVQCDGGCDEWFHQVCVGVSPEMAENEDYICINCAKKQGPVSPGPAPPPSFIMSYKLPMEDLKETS
Description: AlphaScreen technology (PerkinElmer) was utilized to perform a screen for small molecule inhibitors of KDM5A. The assay was comprised of two steps, a demethylation reaction followed by detection of the product. A biotinylated H3K4me3 peptide was used as substrate in the demethylation reaction with KDM5A in the presence or absence of small molecule inhibitors. The presence of peptide product (H3K4me1/2) was detected using a product-specific antibody and beads. For this, acceptor beads coated in protein A bound to the antibody, which recognized the peptide product. Donor beads coated in streptavidin bound biotin on the peptide substrate. If the demethylation reaction occurred, the beads were in very close proximity and laser excitation of the donor beads at 680nm caused a transfer of energy in the form of reactive singlet oxygen, resulting in emission by the acceptor beads between 520–620 nm ([30, 31], Figure 1A). The luminescent signal detected was a proxy for the amount of demethylation that occurred.
Reactions were carried out for 1 hour, or were stopped by addition of 30 mM EDTA every 5 minutes for determining enzyme kinetics. Km values were calculated using the Michaelis-Menten non-linear regression analysis on GraphPad Prism 6.0 software. The concentration of DMSO in demethylation reactions was 0.05%. For reactions with catalase, catalase (Sigma C30) or an equal volume of dilution buffer was added to the peptide-containing buffer before addition of the demethylase. The final concentration of catalase in the reactions was 0.01 mg/ml.
(§1) The AlphaScreen general IgG (protein A) detection kit from PerkinElmer Life Sciences was used as described previously. The luminescence emission was recorded at 570 nm using the AlphaScreen optic module on a Pherastar (BMG Labtech) or Envision (PerkinElmer Life Sciences) microplate reader.
IC50 values were calculated by log transformation and non-linear regression log(inhibitor) versus response(three parameters) using Graphpad Prism 6.0 software.

FLAG-KDM5B = target: T2, FLAG-KDM5B (Homo sapiens, UniProt Q9UGL1); assay: AlphaScreen KDM5B demethylation assay; type: biochemical
T2 construct: Full-length FLAG-KDM5B, FLAG-KDM5C, and His-FLAG-KDM6A production was detailed previously; FLAG (N); made in house
T2 sequence (Q9UGL1 whole entry): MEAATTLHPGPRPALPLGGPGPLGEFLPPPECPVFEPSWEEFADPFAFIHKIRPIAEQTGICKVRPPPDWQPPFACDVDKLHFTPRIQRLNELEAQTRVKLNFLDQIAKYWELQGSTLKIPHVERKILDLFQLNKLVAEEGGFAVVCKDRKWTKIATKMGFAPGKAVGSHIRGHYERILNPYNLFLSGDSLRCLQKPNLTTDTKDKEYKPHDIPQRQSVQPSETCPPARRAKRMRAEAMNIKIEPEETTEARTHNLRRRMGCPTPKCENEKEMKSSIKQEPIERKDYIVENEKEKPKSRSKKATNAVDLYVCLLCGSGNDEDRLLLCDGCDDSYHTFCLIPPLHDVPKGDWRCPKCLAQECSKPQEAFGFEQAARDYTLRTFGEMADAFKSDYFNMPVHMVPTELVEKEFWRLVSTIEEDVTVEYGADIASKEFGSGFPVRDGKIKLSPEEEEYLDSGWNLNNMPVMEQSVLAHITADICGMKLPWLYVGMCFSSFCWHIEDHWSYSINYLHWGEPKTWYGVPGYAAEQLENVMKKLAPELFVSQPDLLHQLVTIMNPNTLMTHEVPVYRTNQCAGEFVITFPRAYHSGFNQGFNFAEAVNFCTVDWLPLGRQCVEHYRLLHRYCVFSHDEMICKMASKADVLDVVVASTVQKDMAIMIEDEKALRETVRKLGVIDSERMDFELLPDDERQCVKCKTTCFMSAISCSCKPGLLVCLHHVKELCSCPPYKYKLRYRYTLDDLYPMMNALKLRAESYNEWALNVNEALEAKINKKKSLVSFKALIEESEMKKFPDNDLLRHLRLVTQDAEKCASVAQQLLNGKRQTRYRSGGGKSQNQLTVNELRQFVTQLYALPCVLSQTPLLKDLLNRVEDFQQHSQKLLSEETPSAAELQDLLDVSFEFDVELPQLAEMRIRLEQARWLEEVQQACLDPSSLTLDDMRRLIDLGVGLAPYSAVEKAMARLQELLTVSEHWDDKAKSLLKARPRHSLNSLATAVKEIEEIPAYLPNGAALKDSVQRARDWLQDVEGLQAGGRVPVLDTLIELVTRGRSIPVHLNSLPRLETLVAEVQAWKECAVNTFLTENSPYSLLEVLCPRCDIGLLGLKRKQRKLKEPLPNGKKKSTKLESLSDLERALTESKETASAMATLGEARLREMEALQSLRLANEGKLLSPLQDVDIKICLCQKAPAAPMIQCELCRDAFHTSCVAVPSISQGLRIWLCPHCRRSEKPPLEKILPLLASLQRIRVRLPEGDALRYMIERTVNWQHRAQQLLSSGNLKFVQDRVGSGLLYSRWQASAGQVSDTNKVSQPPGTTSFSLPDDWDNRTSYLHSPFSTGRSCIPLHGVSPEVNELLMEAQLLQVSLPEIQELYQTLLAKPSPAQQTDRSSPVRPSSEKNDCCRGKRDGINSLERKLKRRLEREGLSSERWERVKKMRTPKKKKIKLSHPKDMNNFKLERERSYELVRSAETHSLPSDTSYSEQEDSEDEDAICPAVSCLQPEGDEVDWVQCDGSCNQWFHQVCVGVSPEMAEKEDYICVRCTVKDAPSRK
Protocol: (§2) Histone demethylase assays were performed as described previously, with the exception of all enzyme reactions containing 125 μM α-KG. Enzymes were used at the following approximate concentrations in validation experiments, chosen based on their activity in AlphaScreen assays: 19 nM FLAG-KDM5A, 15 nM FLAG-KDM5B, 6 nM FLAG-KDM5C, 29 nM His-FLAG-KDM6A, and 16 nM FLAG-KDM6B. 24 nM FLAG-KDM5A was used for Km determination experiments. Reactions were carried out for 1 hour, or were stopped by addition of 30 mM EDTA every 5 minutes for determining enzyme kinetics. Km values were calculated using the Michaelis-Menten non-linear regression analysis on GraphPad Prism 6.0 software. The concentration of DMSO in demethylation reactions was 0.05%. For reactions with catalase, catalase (Sigma C30) or an equal volume of dilution buffer was added to the peptide-containing buffer before addition of the demethylase. The final concentration of catalase in the reactions was 0.01 mg/ml.
as §1

His-FLAG-KDM6A (UTX) = target: T3, His-FLAG-KDM6A (UTX) (Homo sapiens, UniProt O15550); assay: AlphaScreen KDM6A demethylation assay; type: biochemical
T3 construct: Full-length FLAG-KDM5B, FLAG-KDM5C, and His-FLAG-KDM6A production was detailed previously; His (N); FLAG (N); made in house
T3 sequence (O15550 whole entry): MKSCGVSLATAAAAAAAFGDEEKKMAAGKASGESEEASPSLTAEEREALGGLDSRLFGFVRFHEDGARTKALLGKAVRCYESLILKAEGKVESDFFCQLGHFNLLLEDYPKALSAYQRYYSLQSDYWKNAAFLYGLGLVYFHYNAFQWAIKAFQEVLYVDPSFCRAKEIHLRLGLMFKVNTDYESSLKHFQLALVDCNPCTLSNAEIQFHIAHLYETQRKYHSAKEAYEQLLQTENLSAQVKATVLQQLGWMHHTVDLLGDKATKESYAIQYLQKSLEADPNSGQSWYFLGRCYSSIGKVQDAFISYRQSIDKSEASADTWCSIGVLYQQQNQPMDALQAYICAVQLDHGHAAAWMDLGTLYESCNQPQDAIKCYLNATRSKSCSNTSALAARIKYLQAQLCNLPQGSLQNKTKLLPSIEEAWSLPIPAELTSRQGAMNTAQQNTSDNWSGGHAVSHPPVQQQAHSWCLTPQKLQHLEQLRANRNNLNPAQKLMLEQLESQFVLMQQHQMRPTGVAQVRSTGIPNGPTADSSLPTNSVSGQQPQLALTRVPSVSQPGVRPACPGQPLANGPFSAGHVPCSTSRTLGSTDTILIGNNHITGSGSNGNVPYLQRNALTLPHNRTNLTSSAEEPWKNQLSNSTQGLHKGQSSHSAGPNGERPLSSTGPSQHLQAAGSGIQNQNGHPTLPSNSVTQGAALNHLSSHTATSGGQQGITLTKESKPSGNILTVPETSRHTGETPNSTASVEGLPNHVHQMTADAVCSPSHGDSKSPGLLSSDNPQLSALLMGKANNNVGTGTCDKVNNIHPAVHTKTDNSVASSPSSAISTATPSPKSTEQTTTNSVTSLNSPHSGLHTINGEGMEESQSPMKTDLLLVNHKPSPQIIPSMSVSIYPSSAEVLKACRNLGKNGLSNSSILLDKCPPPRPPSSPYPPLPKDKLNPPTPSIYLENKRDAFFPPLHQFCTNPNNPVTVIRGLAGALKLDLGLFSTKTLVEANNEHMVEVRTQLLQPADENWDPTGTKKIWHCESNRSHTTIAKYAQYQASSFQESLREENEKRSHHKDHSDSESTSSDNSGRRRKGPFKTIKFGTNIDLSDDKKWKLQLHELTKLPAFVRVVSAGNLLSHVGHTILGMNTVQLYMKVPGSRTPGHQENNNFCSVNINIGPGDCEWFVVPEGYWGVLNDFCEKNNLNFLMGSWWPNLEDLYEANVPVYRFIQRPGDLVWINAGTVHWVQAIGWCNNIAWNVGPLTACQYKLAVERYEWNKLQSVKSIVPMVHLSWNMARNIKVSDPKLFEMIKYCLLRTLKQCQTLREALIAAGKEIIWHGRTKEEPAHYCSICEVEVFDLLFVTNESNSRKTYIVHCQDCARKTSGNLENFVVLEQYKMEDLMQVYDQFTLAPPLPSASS
Protocol: as §2, §1

[1] = tested on: H3K4 methylation in HeLa cells; assay: Western blot of global H3K4 methylation, HeLa; type: cell-based, human; conditions: for H3K4me3 Fold (H3K4me3/Total H3, normalized to DMSO): 48 hr
Protocol: (§3) Cells were lysed as described previously. Histones were separated by centrifugation, resuspended in Laemmeli buffer, and sonicated. Protein concentration of cell lysates was measured by Bradford assay. Samples in Laemmeli buffer were boiled 10 minutes at 95°C and loaded onto 7% (whole cell lysates) or 18% (histones) SDS-PAGE gels. Membranes were blocked in 4% non-fat milk in Tris-buffered saline with 0.05% Tween (TBS-T) and incubated with primary antibodies in the same buffer or 5% bovine serum albumin in TBS-T overnight at 4°C. Membranes were incubated with secondary anti-rabbit or anti-mouse antibodies for one hour at room temperature. Blots were visualized by Thermo Scientific Pierce ECL Western Blotting Substrate (32106) or EMD Millipore Immobilon Western Chemiluminescent HRP Substrate (WBKLS0100) on film. Signal was quantified using ImageJ software.

[2] = tested on: H3K4 methylation in ZR-75-1 cells; assay: Western blot of global H3K4 methylation, ZR-75-1; type: cell-based, human; conditions: ZR-75-1, 48 hour treatment
Protocol: as §3

[3] = tested on: H3K4 methylation in MDA-MB-231 cells; assay: Western blot of global H3K4 methylation, MDA-MB-231; type: cell-based, human; conditions: MDA-MB-231, 72 hr treatment
Protocol: as §3

mode of inhibition with respect to Fe(II) (full-length FLAG-KDM5A): uncompetitive with respect to Fe(II)
change of IC50 over a 16-fold range of α-KG concentrations (full-length FLAG-KDM5A; 150 nM H3K4me3 peptide, 50 μM Fe(II)): did not change significantly
inhibition at 2 µM (full-length FLAG-KDM5A; 50 μM Fe(II)): ~70%
inhibition at 2 µM (full-length FLAG-KDM5A; low Fe(II)): ~25%
enzyme inhibition at low Fe(II) (full-length FLAG-KDM5A; 5 μM Fe(II)): too weak to generate robust IC50 curves
effect of catalase on inhibitory potency against KDM5A (full-length FLAG-KDM5A; 0.01 mg/ml catalase): did not affect
IC50 (full-length FLAG-KDM5A; AlphaScreen, 1 hour reaction, 0.05–50 μM compound): 2.66 µM
IC50 (FLAG-KDM5B; AlphaScreen): > 50 µM
activity against KDM5B (FLAG-KDM5B; at 50 μM): no activity
IC50 (His-FLAG-KDM6A (UTX)): > 50 µM
SMILES: C=CCOc1c(CNn2cnnc2S)cccc1OC [YUKA1, 4-([2-(allyloxy)-3-methoxybenzyl]amino)-4H-1,2,4-triazole-3-thiol]
H3K4me2 and H3K4me1 levels ([1]; HeLa): increased
cell activity by global H3K4 methylation changes ([1]; HeLa and MCF7 cells, western blot): cell-active
H3K4me3 Fold (H3K4me3/Total H3, normalized to DMSO) ([1]; HeLa, 50 μM): 3.0
H3K4me3 Fold (H3K4me3/Total H3, normalized to DMSO) ([1]; HeLa, 100 μM): 3.2
global H3K4me3 levels ([1]; HeLa, 48 hour treatment): dose-dependent increase
global H3K4me3 levels [2]: increased global H3K4me3 levels
H3K4 methylation [3]: only minor changes
